In PubChem BioAssay (NCI):
“And” between values parts separate entries of the source, which are not always exact repeats. Equal entries are not always repeated.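 1) Cells in 96-well plates. 2) Compound, 48 h, 5 concentrations. 3) Linear interpolation between surrounding doses. 4) Unreached endpoint = highest concentration. Abbreviation: GI50, concentration required for 50% inhibition of growth. TGI marks complete inhibition of growth.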

Legend:
Test in all cases: NCI anticancer screen, dose series, 48 h
[1] = system: COLO 205 colon
[2] = system: HCT-15 colon
[3] = system: KM12 colon
[4] = system: MOLT-4 leukemia
[5] = system: NCI-H460 lung
[6] = system: OVCAR-5 ovarian
[7] = system: RXF 393 renal
[8] = system: SK-MEL-5 melanoma
[9] = system: MDA-MB-231 breast
[10] = system: NCI/ADR-RES ovarian

Row | SMILES | TGI [1] [µM] | TGI [2] [µM] | TGI [3] [µM] | TGI [4] [µM] | TGI [5] [µM] | TGI [6] [µM] | TGI [7] [µM] | TGI [8] [µM] | GI50 [1] | GI50 [2] [µM] | GI50 [3] [µM] | GI50 [9] [µM] | TGI [9] [µM] | GI50 [4] [µM] | GI50 [5] [µM] | GI50 [10] [µM] | TGI [10] [µM] | GI50 [6] [µM] | GI50 [8] [µM] | GI50 [7] [µM]
1 | Cn1c(=O)oc2cc(C3CCC(=O)N3Cc3ccc(Cl)cc3)ccc21 (stereo not drawn) | > 100 | > 100 | > 100 | > 100 | > 100 | > 100 | > 100 | > 100 | – | – | – | – | – | – | – | – | – | – | – | –
2 | COc1ccc(-c2csc3c2-n2cccc2C3=O)cc1O | 26.3 | > 100 | > 100 | 6.1 | 13.1 | > 100 | – | 0.237 | 9.77 µM | < 0.0132 | 0.0653 | 0.0925 | > 100 | 0.132 | 0.0375 | 0.0143 | > 100 | 1.5 | 0.0326 | –
3 | COc1ccccc1NC(=O)CC(=O)NNCC(=O)Nc1nnc(-c2ccccc2)o1 | > 100 | > 100 | > 100 | > 100 | – | > 100 | – | > 100 | – | – | – | – | – | – | – | – | – | – | – | –
4 | O=C(CCCn1ccnc1[N+](=O)[O-])NCCn1ccnc1[N+](=O)[O-] | > 100 | > 100 | > 100 | > 100 | > 100 | > 100 | – | > 100 | – | – | – | – | – | – | – | – | > 100 | – | – | –
5 | COc1ccc2[nH]cc(-c3nc(-c4c[nH]c5ccncc45)cs3)c2c1 | – | 4.29 | 3.75 | – | 3.73 | 4.74 | 3.33 | 3.05 | – | 1.95 | 1.76 | 1.65 | 3.25 | – | 1.84 | 2.48 | 6.84 | 2.37 | 1.65 | 1.74
6 | O=C(O)c1ccc(C2C3C=CC(C3)C2[N+](=O)[O-])cc1 (stereo not drawn) | > 100 | > 100 | > 100 | > 100 | > 100 | – | > 100 | > 100 | – | – | – | – | – | – | – | – | – | – | – | –
7 | COc1ccc(C2=C(c3cc(OC)c(OC)c(OC)c3)C(=O)OC2)cc1OC | 0.941 | > 100 | – | > 100 | > 42.6 | > 48.4 | > 100 | 1.5 | 0.295 µM | 0.0354 | < 0.0164 | 0.576 | > 75.9 | 0.0466 | < 0.0222 | – | – | 0.379 | 0.0182 | 0.0146
8 | CNC(=O)OCc1[nH]ccc2c(C)c3nc4ccc(OC)cc4c3cc12 | > 28.1 | > 21.9 | > 23.9 | 3.89 | – | > 100 | 8.72 | 12.8 | – | – | – | – | – | – | – | – | – | – | – | –
9 | O=C(O)CCCNS(=O)(=O)c1ccc2ccccc2c1 | > 100 | > 100 | > 100 | > 100 | > 100 | > 100 | > 100 | > 100 | – | – | – | – | – | – | – | – | – | – | – | –
10 | NC(N)=N/N=C/c1c(-c2ccc(Cl)c([N+](=O)[O-])c2)nc2ccccn12 | – | 56.1 | – | 3.64 | – | 3.21 | – | 41.3 | – | 9.18 | – | 1.69 | 3.29 | 1.68 | – | > 100 | > 100 | 1.73 | 13.3 | –
11 | CC1=CC2CC(C)C1(C)CCc1ccoc12 (stereo not drawn) | > 100 | > 100 | > 100 | > 100 | > 100 | > 100 | > 100 | > 100 | – | – | – | – | – | – | – | – | – | – | – | –
12 | CC(=O)OC12CC(C)C3(O)C4C=C(C)C(=O)[C@@]4(O)CC(CO)=C[C@H]3C1C2(C)C (stereo partly drawn) | – | > 1000 | > 1000 | > 1000 | – | > 1000 | – | > 1000 | 0.522 µM and 0.903 µM | > 1000 | > 1000 | – | – | – | – | > 1000 | > 1000 | > 1000 | 33.4 | –
13 | CCOC(=O)C(=O)Nc1ccc(Cl)c(C(F)(F)F)c1 | > 100 | > 100 | – | > 100 | – | > 100 | > 100 | > 100 | – | – | – | – | – | – | – | – | – | – | – | –
14 | COC(=O)C1=Cc2c(cc(OC)c(OC)c2OC)[C@H](c2ccc(OC)c(OC)c2OC)C1C(=O)OC (stereo partly drawn) | > 100 | > 100 | > 100 | > 100 | > 100 | > 100 | > 100 | > 100 | – | – | – | – | – | – | – | – | – | – | – | –
15 | Cc1ccc2nc(N/N=C/c3cccc(C)n3)cc(C)c2c1 | 32.6 | 52.7 | 27.7 | – | 23.2 | 28.5 | 31.6 | 36.4 | – | – | – | – | 36 | – | – | – | 48 | – | – | –
16 | COc1cc2c(c(OC)c1OC)-c1ccc(SC)c(=O)cc1C(CC(=O)Oc1cccc(C#N)c1)C2 (stereo not drawn) | 3.41 | 6.47 | 4.83 | > 100 | 19.7 | > 100 | – | 40.8 | – | – | – | – | – | – | – | – | – | – | – | –
17 | Cc1cn2c(=O)n(c1=O)Cc1ccccc1C2 | 31.9 | > 100 | > 100 | – | > 100 | > 100 | > 100 | > 100 | 1.04 µM | > 100 | > 100 | 5.84 | > 100 | – | > 100 | > 100 | > 100 | > 100 | 83.1 | 19.5
18 | Cc1ccc2[nH]c(C(=O)NN3C(=O)C(C)SC34CCCCC4C)c(-c3ccccc3)c2c1 (stereo not drawn) | 38.9 | 38.5 | 39.9 | 41 | 58.5 | 40.3 | 21.1 | 33.5 | 18 µM | 18 | 18.5 | 17.4 | 34.9 | 12.2 | 22 | – | – | 20.3 | 16 | 0.415
19 | CC(=O)O[C@H]1CC[C@@]2(C)C(=CC[C@@H]3C2CC[C@]2(C)Nc4[nH]ncc4CC32)C1 (stereo partly drawn) | – | 32.8 | 31.1 | 35.8 | 33.7 | > 100 | > 100 | 42.5 | – | – | – | – | – | – | – | – | – | – | – | –
20 | COc1cc2c3c(n(CCCNCCNCCCN)c(=O)c2cc1OC)-c1cc2c(cc1C3=O)OCO2 | 17.9 | 20 | 14.5 | – | > 100 | 21.4 | 93.1 | 20.3 | 3.57 µM | 2.24 | 2.61 | 1.19 | 3.59 | – | 6.41 | 21.1 | 94.6 | 3.82 | 6.41 | 13
